Experimental data reported in article PMC10344917, “Affinity and cooperativity modulate ternary complex formation to drive targeted protein degradation” (Nature Communications, 2023).
Where two headings read alike, the source gives them in different places.

Assays:
[1] = target: T1, SMARCA2 (Homo sapiens, UniProt P51531); assay: SMARCA2 degradation time course in A375 cells (MSD); format: cell-based; settings: single concentration at or near maximal activity
T1 construct: endogenous in cells; host or cells: A375
T1 sequence (P51531 whole entry): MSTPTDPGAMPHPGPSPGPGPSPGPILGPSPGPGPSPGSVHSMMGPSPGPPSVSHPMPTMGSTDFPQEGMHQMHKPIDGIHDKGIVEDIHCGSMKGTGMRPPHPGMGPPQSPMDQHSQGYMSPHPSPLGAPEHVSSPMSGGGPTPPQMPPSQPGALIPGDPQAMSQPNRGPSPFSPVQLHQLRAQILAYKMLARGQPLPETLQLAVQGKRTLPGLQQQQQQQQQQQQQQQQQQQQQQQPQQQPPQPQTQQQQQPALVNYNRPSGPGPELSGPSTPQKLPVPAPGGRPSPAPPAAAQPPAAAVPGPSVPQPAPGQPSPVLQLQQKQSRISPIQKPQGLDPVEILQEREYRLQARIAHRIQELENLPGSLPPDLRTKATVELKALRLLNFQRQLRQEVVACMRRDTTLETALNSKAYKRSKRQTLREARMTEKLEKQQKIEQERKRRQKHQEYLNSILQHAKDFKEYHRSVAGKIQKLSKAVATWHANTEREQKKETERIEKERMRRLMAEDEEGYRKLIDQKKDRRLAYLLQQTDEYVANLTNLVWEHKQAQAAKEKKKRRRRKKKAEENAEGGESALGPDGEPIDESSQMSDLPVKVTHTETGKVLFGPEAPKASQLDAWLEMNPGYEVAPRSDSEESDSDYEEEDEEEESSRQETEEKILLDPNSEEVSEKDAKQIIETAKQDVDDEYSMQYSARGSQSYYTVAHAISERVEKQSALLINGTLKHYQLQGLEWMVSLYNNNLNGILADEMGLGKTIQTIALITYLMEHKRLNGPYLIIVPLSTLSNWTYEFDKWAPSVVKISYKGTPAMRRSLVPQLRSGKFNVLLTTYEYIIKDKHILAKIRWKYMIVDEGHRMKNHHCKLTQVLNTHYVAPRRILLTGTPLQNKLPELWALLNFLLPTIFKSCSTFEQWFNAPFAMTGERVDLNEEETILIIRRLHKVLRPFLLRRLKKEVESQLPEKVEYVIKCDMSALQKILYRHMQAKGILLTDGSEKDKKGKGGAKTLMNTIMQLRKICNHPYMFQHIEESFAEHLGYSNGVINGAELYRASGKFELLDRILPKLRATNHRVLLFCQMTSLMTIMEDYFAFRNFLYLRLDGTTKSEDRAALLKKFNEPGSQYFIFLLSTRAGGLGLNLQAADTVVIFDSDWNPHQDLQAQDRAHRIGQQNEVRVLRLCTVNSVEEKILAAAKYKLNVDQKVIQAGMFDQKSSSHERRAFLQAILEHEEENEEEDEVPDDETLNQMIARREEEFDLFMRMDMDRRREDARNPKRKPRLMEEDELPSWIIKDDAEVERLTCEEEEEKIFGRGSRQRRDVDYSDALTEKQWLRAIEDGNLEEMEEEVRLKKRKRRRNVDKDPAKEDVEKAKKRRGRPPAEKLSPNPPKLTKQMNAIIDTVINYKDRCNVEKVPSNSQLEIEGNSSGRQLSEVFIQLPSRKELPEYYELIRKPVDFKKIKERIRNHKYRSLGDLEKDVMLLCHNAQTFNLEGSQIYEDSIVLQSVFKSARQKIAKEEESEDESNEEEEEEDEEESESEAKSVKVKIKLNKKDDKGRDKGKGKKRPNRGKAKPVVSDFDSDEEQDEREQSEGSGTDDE
Source text: This characteristic has been described as cooperativity (α > 1) and likely results from favorable PPIs present in the ternary complex. […] To measure the rate of protein degradation, we treated A375 cells with a single concentration of each PROTAC and measured the decrease in target abundance over time as shown in Figs. 4b and5b.
(§1) MSD electrochemiluminescence signals were subtracted by the average background signal from wells with lysis buffer alone. Normalized MSD values (POC) for individual compound treated wells were acquired by dividing background-subtracted assay signal by signal from vehicle control wells (cells + 0.1% DMSO) and multiplying by 100. This POC data was graphed using a nonlinear regression curve fit xy analysis and a log(inhibitor) vs response —variable slope (four parameter) model for dose response curves (Graphpad Prism 9, San Diego, CA, USA). To calculate area under the curve, all points on the curve were connected and vertical lines were drawn from each point down to y = 0, generating a series of trapezoids. The area of each trapezoid was determined using the equation A = (1/2)(h)(b1 + b2), where h = 1 (distance between points), b1 = POC of the first point and b2 = POC of the second point. The sum of all trapezoids provides an approximate area under the curve (AUC). For half-life (t1/2) determination in time course studies, a one-phase decay model was used for curve fitting and the time at which the curve crossed 50 POC was determined through interpolation (Graphpad Prism 9, San Diego, CA, USA). Additionally initial rate of degradation was determined by multiplying 100 with rate constant (τ = 0.693/t1/2).

[2] = target: T1, SMARCA2; assay: SMARCA2 degradation, MSD assay, dose response; format: cell-based; parameters: key to AUC (area under the dose-response curve): sum of trapezoids of POC vs dose points, h = 1
Procedure: (§2) A375 cells were treated with SMARCA2 or BRD4 degraders for 2 h (4 h for BRD4) and generated lysates. SMARCA2 or BRD4 protein was measured with a variation of a sandwich ELISA that was assembled from commercially available antibodies as well as reagents and instrumentation procured from Meso Scale Discovery (MSD). Degradation parameter, DC50, is not suitable for PROTACs that induce partial/incomplete DR curves at a fixed time point; maximum drop in target protein level (Dmax) >>0. Conversely, the area under the curve (AUC) can be calculated as a degradation activity parameter for any DR curve, and it encompasses both the degradation potency (i.e., DC50) and efficacy (i.e., Dmax) of PROTACs.
(§3) A 1:3 compound dose-response titration was diluted in growth media (1:20), added to appropriate wells of a cell culture plate (1:10) and then assay plates were incubated at 37 °C, 5% CO2.
(§4) Plates were washed with 300 µL per well MSD wash buffer (MSD R61TX-1) between each step. Following the last incubation, plates were washed with MSD wash buffer then 150 µL of MSD read buffer (MSD R92TC-2) was added to each well. Plates were immediately read on a MSD plate reader (MSD Sector Imager 6000).
as §1, with “USA).” for “USA). Additionally initial rate of degradation was determined by multiplying 100 with rate constant (τ = 0.693/t1/2).”

[3] = target: T2, SMARCA2^BD (Homo sapiens, UniProt P51531); assay: SPR binary binding of PROTAC to SMARCA2-functionalized surface; settings: 1:1 Langmuir binding model, SEM N=3 or SD N=2, read-out: KTP (binary affinity PROTAC / SMARCA2)
T2 construct: SMARCA2^BD 1373–1511 ∆1400–1417; made in house
T2 sequence (P51531 1373-1493 isoform P51531-2): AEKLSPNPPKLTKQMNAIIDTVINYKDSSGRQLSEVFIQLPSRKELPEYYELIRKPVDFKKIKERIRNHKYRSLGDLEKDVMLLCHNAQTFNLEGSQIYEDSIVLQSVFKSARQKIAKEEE
Procedure: PROTACs (10 mM stocks in 100% DMSO) were diluted to 400 nM in a running buffer (20 mM Tris pH 7.5, 200 mM NaCl, 0.02% P20). This stock solution was then serially diluted in the running buffer containing final 2% DMSO. Solutions were injected in multi-cycle kinetic format without regeneration (contact time 60 s, flow rate 80 μL/min, dissociation time 120 s) using a stabilization period of 30 s and syringe wash (50% DMSO) between injections onto a high-density VBC-functionalized surface. For SMARCA2 analysis, biotinylated proteins were introduced on a Series S streptavidin (SA) sensor chip at high-density (3000-4000 RU).
(§5) Raw sensorgrams were processed by performing double reference subtraction, solvent correction, and analysis was done using Biacore Insight Evaluation Software. Kinetic analysis was performed by fitting data to a 1:1 Langmuir interaction model and a steady-state affinity model was used to evaluate equilibrium binding affinity.

[4] = target: T3, VBC / SMARCA2^BD ternary complex (Homo sapiens, UniProt P40337+P51531); assay: SPR ternary complex binding, VBC surface with preformed PROTAC/SMARCA2 bromodomain complex
T3 construct: VHL (54-213), ElonginB (17-112) ElonginC (1-104); SMARCA2^BD 1373–1511 ∆1400–1417; His6 (N, cleaved yes); made in house
Procedure: (§6) SPR experiments were performed on a Biacore 8 K or T200 instrument (Cytiva). […] The running buffer during immobilization was PBS with 0.005% P20. Either high-density (3000-4000 RU) or low-density (300-400 RU) VBC-functionalized surfaces were created, followed by equilibration in the running buffer for 3 h.
(§7) PROTACs (10 mM in 100% DMSO) were initially prepared at 200 nM in a running buffer (20 mM Tris pH 8.0, 250 mM NaCl, 1 mM TCEP, 0.01% P20, 0.2 mg/ml BSA) with a concentration of 2% DMSO. This solution was mixed at 1:1 ratio with a solution of 5 μM of the SMARCA2 or BRD4 bromodomain protein in the running buffer. This complex was then serially diluted in the running buffer containing 2.5 μM SMARCA2 or BRD4 and 2% DMSO (5-point five-fold serial dilution). For ternary experiments, solutions were injected sequentially in single-cycle kinetic format without regeneration (contact time 60 s, flow rate 80 μL/min, dissociation time 300 s) using a stabilization period of 60 s and syringe wash (50% DMSO) between injections onto a low-density VBC-functionalized surface.
as §5

[5] = target: T4, VHL/EloB/EloC (VBC) (Homo sapiens, UniProt P40337); assay: SPR binary binding of PROTAC to VBC-functionalized surface; settings: SPR; error SEM, N = 3; read-out: KLP (binary binding affinity between E3 ligase VHL and PROTAC)
T4 construct: VHL (54-213), ElonginB (17-112) ElonginC (1-104); made in house
Procedure: as §6
PROTACs (10 mM stocks in 100% DMSO) were diluted to 400 nM in a running buffer (20 mM Tris pH 7.5, 200 mM NaCl, 0.02% P20). This stock solution was then serially diluted in the running buffer containing final 2% DMSO. […] For SMARCA2 analysis, biotinylated proteins were introduced on a Series S streptavidin (SA) sensor chip at high-density (3000-4000 RU).
as §5

[6] = target: T5, BRD4 (Homo sapiens, UniProt O60885); assay: BRD4 degradation time course in A375 cells (MSD); format: cell-based; settings: single concentration at or near maximal activity
T5 construct: endogenous in cells; host or cells: A375
Source text: To measure the rate of protein degradation, we treated A375 cells with a single concentration of each PROTAC and measured the decrease in target abundance over time as shown in Figs. 4b and5b.
as §1, with “USA).” for “USA). Additionally initial rate of degradation was determined by multiplying 100 with rate constant (τ = 0.693/t1/2).”

[7] = target: T6, BRD4^BD2 (Homo sapiens, UniProt O60885); assay: SPR binary binding of PROTAC to BRD4^BD2-functionalized surface; settings: 1:1 Langmuir binding model, SD N=2
T6 construct: ternary complex formation with both bromodomains, BRD4^BD1 and BRD4^BD2, independently; made in house

[8] = target: T7, VBC / BRD4^BD1 ternary complex (Homo sapiens, UniProt O60885+P40337); assay: SPR ternary complex binding, VBC surface with preformed PROTAC/BRD4 BD1 complex
T7 construct: VHL (54-213), ElonginB (17-112) ElonginC (1-104); BRD4 (44-168); His6 (N, cleaved yes); made in house
Procedure: as §6
as §7, with “This complex was then serially diluted in the running buffer containing 2.5 μM SMARCA2 or BRD4 and 2% DMSO (5-point five-fold serial dilution).” left out
as §5

[9] = target: T8, BRD4-NanoLuc (Homo sapiens, UniProt O60885); assay: NanoBRET target engagement assay, live and permeabilized HEK293 cells (BRD4); format: cell-based; settings: for IC50: BRD4 NanoBRET TE
T8 construct: expressed in transfected cells; host or cells: HEK293
Procedure: We employed a NanoBRET-based target engagement (TE) assay as reported earlier^7 for evaluating PROTACs relative permeability. In summary, live and permeabilized HEK293 cells with SMARCA2 or BRD4-NanoLuc were used for measuring IC50 values of different PROTACs. The relative shift in the IC50 was evaluated as relative binding affinity (RBA) by taking the ratio of IC50 values of live and permeabilized cells. Availability index (AI), which is a surrogate for permeability can be calculated by taking a ratio of RBA of compounds to permeable benchmark molecules.
Relative Binding Affinity (RBA) = Live-cell TE IC50 / Permeabilized-cell TE IC50
Availability Index (AI) = RBAtest cmpd / RBApermeable benchmark
Availability Index (AI) greater than one is indicative of reduced permeability compared to the benchmark.

[10] = target: T5, BRD4; assay: BRD4 degradation, MSD assay, dose response; format: cell-based; parameters: AUC (area under the dose-response curve): unit not given beside the values; settings: A375 cells
Procedure: as §2, §3, §4
as §1, with “USA).” for “USA). Additionally initial rate of degradation was determined by multiplying 100 with rate constant (τ = 0.693/t1/2).”

[11] = target: T9, VBC / BRD4^BD2 ternary complex (Homo sapiens, UniProt O60885+P40337); assay: SPR ternary complex binding, VBC surface with preformed PROTAC/BRD4 BD2 complex
T9 construct: VHL (54-213), ElonginB (17-112) ElonginC (1-104); ternary complex formation with both bromodomains, BRD4^BD1 and BRD4^BD2, independently; His6 (N); made in house
Procedure: as §6
as §7, with “This complex was then serially diluted in the running buffer containing 2.5 μM SMARCA2 or BRD4 and 2% DMSO (5-point five-fold serial dilution).” left out
as §5

[12] = SPR, VHL, PROTAC, error SEM, N = 3, read-out: KLPT (ternary complex binding affinity)

## Cc1ncsc1-c1ccc([C@H](C)NC(=O)[C@@H]2C[C@@H](O)CN2C(=O)[C@@H](NC(=O)c2cccc(N3CCN(c4nc(-c5ccccc5O)nnc4N)CC3)n2)C(C)(C)C)cc1 [Compound 9, 6-(4-(6-Amino-3-(2-hydroxyphenyl)-1,2,4-triazin-5-yl)piperazin-1-yl)-N-((S)-1-((2S,4R)-4-hydroxy-2-(((S)-1-(4-(4-methylthiazol-5-yl)phenyl)ethyl)carbamoyl)pyrrolidin-1-yl)-3,3-dimethyl-1-oxobutan-2-yl)picolinamide]
[1]
  Initial Degradation Rate: 0.98 %/min
[2]; 2 h MSD assay
  SMARCA2 degradation: ~ 30%
[2]; A-375, SMARCA2 degraded, MSD assay, A375 cells, 2 h timepoint
  Dmax: 74%
[2]; SMARCA2 MSD assay, A375 cells, 2 h
  AUC (area under the dose-response curve): 85
[2]; SMARCA2 degradation, MSD assay, A375 cells, 2 h timepoint
  DC50: 0.372 µM
[3]
  Kd: 0.294 ± 0.033 µM
[4]
  α (cooperativity, KLP/KLPT): 0.32
[4]; [12]
  Kd: 0.077 ± 0.008 µM
[5]
  Kd: 0.025 ± 0.004 µM

## Cc1ncsc1-c1ccc(CNC(=O)[C@@H]2C[C@@H](O)CN2C(=O)[C@@H](NC(=O)COCc2cn(CCNC(=O)C[C@@H]3N=C(c4ccc(Cl)cc4)c4c(sc(C)c4C)-n4c(C)nnc43)nn2)C(C)(C)C)cc1 [Compound 12, (2S,4R)-1-((S)-2-(2-((1-(2-(2-((S)-4-(4-chlorophenyl)-2,3,9-trimethyl-6H-thieno[3,2-f][1,2,4]triazolo[4,3-a][1,4]diazepin-6-yl)acetamido)ethyl)-1H-1,2,3-triazol-4-yl)methoxy)acetamido)-3,3-dimethylbutanoyl)-4-hydroxy-N-(4-(4-methylthiazol-5-yl)benzyl)pyrrolidine-2-carboxamide]
[6]
  Initial Degradation Rate: 1.38 %/min
[7]
  Kd: 0.0205 ± 0.0012 µM
[8]
  α (cooperativity, KLP/KLPT): 0.7
[8]; [12]
  Kd: 0.031 ± 0.004 µM
[9]; RBA test cmpd / RBA of JQ1 benchmark, surrogate for permeability
  Availability Index: 264.47
[9]; live HEK293 cells, read-out: Live-Cell TE
  IC50: 21.6 µM
[9]; permeabilized HEK293 cells, read-out: Permeabilized-Cell TE
  IC50: 0.08 µM
[10]; A-375, BRD4 degraded, MSD assay, 4 h timepoint
  Dmax: 91%
[10]; BRD4 MSD assay, 4 h
  AUC (area under the dose-response curve): 192
[10]; BRD4 degradation, MSD assay, 4 h timepoint
  DC50: 0.518 µM
[5]
  Kd: 0.022 ± 0.002 µM
[11]
  α (cooperativity, KLP/KLPT): 3.7
[11]; [12]
  Kd: 0.006 ± 0.001 µM
